Laboratory results from patent publication US5049372A, “Anticancer activities in a host by increasing blood and plasma adenosine 5'-triphosphate (ATP) levels” (priority 1988, dated 1991).

What was measured:
[1] = system: tumor cells; settings: low doses; prior application Ser. No. 397,897; cited from earlier work
[2] = system: RBC ATP pools; experiment: RBC ATP pools after in vitro incubation of whole mouse blood with 1 mM compound (Table 6); assay type: cell-based; settings: for RBC ATP pools (after 30 min incubations in heparinized mouse blood): 1 mM compound, bioluminometry
Description: ^+ RBC ATP pools were determined in isolated washed RBCs after
incubations of whole blood with 1 mM of the specified compound by
bioluminometry. Data represent means ± S.D. of three separate

[3] = Inhibition of host weight loss (cancer cachexia) in CT26 tumor-bearing mice; assay type: in vivo, mouse; settings: FIG. 3; treatment initiated day 1 (A), day 5 (B) or day 9 (C)
Description: A further series of tests are conducted whereby tumors are inoculated by injections of 2.5×10^5 CT26 cells (over 90% viability) in 50 μl of phosphate-buffered saline into the right hind footpad of CB6F1 mice. The treatments were initiated at a variety of times after inoculation of the tumors. The injection schedules started either 1 or 5 days after tumor inoculation when none of the tumors are palpable or when the tumors are clearly palpable (average calculated weight of 100 mg), which occur in 100% of the inoculated mice after 8-11 days. Mice are randomized, divided into groups, and injected daily with 2.2 ml of saline, adenosine, AMP, or ATP (compounds are in sterile saline solutions at concentrations of 25 mM with AMP and ATP solutions adjusted to pH 6.2). Injections are administered intraperitoneally with 30 gauge needles and the mice are lightly anesthetized with […]. The mice are weighed and tumor sizes measured before the start of the treatment schedule and every three days during and after the treatment schedule. These determinations are performed before injections during the treatment period.
In particular, see FIG. 2. FIG. 2 illustrates inhibition of tumor growth (---) and host weight loss (-) in tumor-bearing mice by treatment with adenine nucleotides. Mice (CB6F1, 8 week old males) bearing palpable CT26 footpad tumors (on day 9 after tumor inoculation) are treated with saline (.smallcircle.), adenosine (o), AMP (Δ), or ATP (.quadrature.) as described herein. An untreated group is also included (x). Arrows indicate days of injection.
FIG. 3 further illustrates inhibition of host weight loss in tumor-bearing animals by treatment with adenine nucleotides. Mice (CB6F1, males, 7 weeks old, in A, 10 weeks old in B, C) are inoculated with CT26 tumors and daily treatments (for 10 consecutive days) with saline (.smallcircle.), adenosine (o), AMP (Δ), or ATP (.quadrature.) are initiated 1 day (A), 5 days (B), or 9 days after tumor inoculation (when all the tumors were palpable) (C). Arrows indicate days of injection. Experimental procedures were outlined in the text.

[4] = Host toxicity (deaths, body weight) in treated mice; assay type: in vivo, mouse; settings: for Deaths: i.p. injections of adenine nucleotides
Description: (§1) Tumor cells are removed from subconfluent cultures by a mild trypsin-EDTA treatment, the cell pellet is washed once with MEM without serum and the cells are suspended at the desired cell numbers in PBS (phosphate-bufferedsaline, 8 g NaCl, 0.2 g KCl, 1.15 g Na2 HPO4.7H2 O, and 0.2 g KH2 PO4 per liter). Cell suspensions are shown to be at least 90% viable by trypan blue exclusion. Mice are injected subcutaneously in the right hind footpad with tumor cells suspended in 50 μl of PBS. The regular protocol (unless otherwise stated) consists of daily i.p. injections of 1 ml of 0.85% NaCl solution or 1 ml of 50 mM of AMP, ADP, or ATP in 0.85% NaCl (from stock solutions adjusted to pH 6.2) starting one day after tumor inoculation and given for ten consecutive days.
(§2) Injections are administered with 30 gauge needles and the mice are lightly anesthetized with ether. The mice are weighed before the start of treatment and once a week during and after treatment. After the tumors become palpable, tumor sizes are determined every three days. The animals are sacrificed, tumors are excised and weighed before they reach 10% of the animals' weight.

[5] = system: CT26 tumors; experiment: Growth inhibition of s.c. footpad CT26 tumors in CB6F1 mice by daily i.p. adenine nucleotides (Table 1); assay type: in vivo, mouse; settings: for Effectiveness of concentrations lower than 50 mM against CT26 footpad tumors: daily i.p. in volumes of 1.4-1.8 ml of saline, CB6F1 mice; for Effect of delaying start of treatment on tumor growth inhibition: start delayed until tumors palpable (6-10 days after inoculation); for Inhibition of tumor growth (% of saline-treated): 1 ml of 25 mM, based on tumor weights
Description: (§3) The tumor cell lines employed were CT26, a mouse undifferentiated, aggressive colon carcinoma, and CAPAN-1, a well-differentiated human pancreatic adenocarcinoma. […] The cells are shown to be free of Mycoplasma contamination. Cells are cultured at 37° C. in a humidified atmosphere of 5% CO2 /95% air in MEM supplemented with antibiotics (100 units of penicillin per ml and 100 μg streptomycin per ml), L-glutamine (2 mM), non-essential amino acids (0.1 mM), sodium pyruvate (1 mM), and 10% fetal bovine serum.
(§4) In the tests, females and males CB6F1 mice (a standard F1 hybrid of BALB/C and C57BL/6) obtained from Jackson Laboratories, Bar Harbor, Maine and athymic outbred NCr nu/nu mice (males and females) from the Department of Radiation Medicine, Massachusetts General Hospital, Boston, Mass. 02114 are used. All the mice are kept for at least two weeks before inoculation of the tumors and the start of treatment and are 7-9 weeks old (CB6F1) or 6-7 weeks old (athymic nu/nu) at the start of the procedure. Animals weigh 20-25 g (females) or 23-28 g (males), are housed 5-12 per cage, and have ad libitum access to food and water.
as §1, §2
The growth inhibitory properties of adenine nucleotides against CT26 murine colon carcinoma, which are inoculated s.c. in the hind footpad of CB6F1 mice, are illustrated in Table 1 hereinbelow. […] No significant differences between males and females are observed either in the rate of tumor growth or in the tumor's response to adenine nucleotides treatment.

[6] = ATP levels in mouse blood (total cellular) and plasma after i.p. injection (Table 3); assay type: in vivo; settings: for Blood ATP levels: total cellular
Description: The mice are anesthetized with ether during the procedure. The plasma is prepared by immediate centrifugation of the blood in a Beckman microfuge (30 sec at 8000 xg). Blood (20 μl) or plasma (100 μl) aliquots are added to 1 ml of cold 7% trichloroacetic acid. […] The determination of ATP levels in the extracts is performed by bioluminometry (luciferinluciferase) using a Turner Designs Bioluminescence Photometer.

[7] = system: CT26 tumors; experiment: Arrest of growth of CT26 tumors in CB6F1 mice (Table 2); assay type: in vivo, mouse; settings: experiment 1; CB6F1, 10 F; 0.5 × 10^4 cells; 5 weeks; 1 ml of 50 mM i.p.
Description: as §3
as §4, with “water. […]” for “water.”
Injections are administered with 30 gauge needles and the mice are lightly anesthetized with ether. […] After the tumors become palpable, tumor sizes are determined every three days. […]

[8] = experiment 3, 12 M per group, 0.5 × 10^6 cells, day 13, 1 ml of 50 mM i.p. daily
[9] = experiment 4, 11 F per group, 0.5 × 10^6 cells, day 14, 1 ml of 50 mM i.p. daily
[10] = experiment 5, 12 F per group, 0.5 × 10^5 cells, day 16, 1 ml of 50 mM i.p. daily
[11] = experiment 6, 10 F per group, 0.5 × 10^5 cells, day 18, 1 ml of 50 mM i.p. daily (Ap4A 10 mM)
[12] = experiment 7, 10 F per group, 0.1 × 10^5 cells, day 22, 1 ml of 50 mM i.p. daily
[13] = experiment 7, 10 F per group, 0.1 × 10^5 cells, day 22, 1 ml of 50 mM i.p. daily, included one complete cure
[14] = CB6F1, 1 hour after i.p. 1 ml of 50 mM
[15] = CB6F1, 5 hours after i.p. 1 ml of 50 mM
[16] = athymic nu/nu, 1 hour after i.p. 1 ml of 50 mM
[17] = athymic nu/nu, 4 hours after i.p. 1 ml of 50 mM
[18] = experiment 1, 10 F per group, 0.5 × 10^6 cells, day 15, 1 ml of 25 mM i.p. daily
[19] = experiment 2, 10 M per group, 0.5 × 10^6 cells, day 15, 1 ml of 25 mM i.p. daily

| SMILES | Effect on growth of tumor cells in vitro (in words) [1] | Increase in RBC ATP pools after in vitro treatment of whole mouse blood (in words) [2] | RBC ATP pools (after 30 min incubations in heparinized mouse blood) [2] [µM] | Deaths before stated day after tumor inoculation [3] | Deaths [4] | Effectiveness of concentrations lower than 50 mM against CT26 footpad tumors [5] | Tumor diameter [5, 8] [cm] | Tumor weight [5, 8] [g] | Tumor diameter [5, 9] [cm] | Tumor weight [5, 9] [g] | Tumor diameter [5, 10] [cm] | Tumor weight [5, 10] [g] | Tumor diameter [5, 11] [cm] | Tumor weight [5, 11] [g] | Tumor diameter [5, 12] [cm] | Tumor weight [5, 13] [g] | Most effective pH of the i.p. solution for inhibition of tumor growth [5] | Effect of delaying start of treatment on tumor growth inhibition [5] | Plasma ATP levels [6, 14] [µM] | Blood ATP levels [6, 14] [mM] | other results |
| --- | --- | --- | --- | --- | --- | --- | --- | --- | --- | --- | --- | --- | --- | --- | --- | --- | --- | --- | --- | --- | --- |
| Nc1ncnc2c1ncn2[C@@H]1O[C@H](COP(=O)(O)O)[C@@H](O)[C@H]1O [AMP, adenosine 5'-monophosphate] | would not inhibit cellular growth | marginal increases in RBC ATP pools | 0.73 ± 0.10 | No deaths occurred before day 19 (A) or day 25 (B,C) | did not cause any deaths | as effective | 1.2 ± 0.2 | 0.65 ± 0.21 | 1.0 ± 0.3 | 0.88 ± 0.31 | 0.6 ± 0.2 | 0.41 ± 0.18 | 0.8 ± 0.2 | 0.56 ± 0.21 | 0.9 ± 0.5 | 0.51 ± 0.28 | 5.5-6.2 | without any significant effects on the magnitude of tumor growth inhibition | 1.75 ± 0.36 | 1.23 ± 0.21 | Side-effects relative to ATP ([4]; host animals): less side-effects than ATP; Plasma ATP levels [6, 15]: 1.69 ± 0.19 µM; Blood ATP levels [6, 15]: 1.36 ± 0.24 mM; Plasma ATP levels [6, 16]: 2.17 ± 0.36 µM; Blood ATP levels [6, 16]: 1.87 ± 0.46 mM; Plasma ATP levels [6, 17]: 1.97 ± 0.41 µM; Blood ATP levels [6, 17]: 2.35 ± 0.67 mM; Arrested tumors/implanted tumors [7]: 2/10 |
| Nc1ncnc2c1ncn2[C@@H]1O[C@H](COP(=O)(O)OP(=O)(O)OP(=O)(O)O)[C@@H](O)[C@H]1O [ATP, adenosine 5'-triphosphate] | marked inhibition of DNA synthesis and arrest of significant populations of cells in the S phase of their cycle | marginal increases in RBC ATP pools | 0.76 ± 0.05 | No deaths occurred before day 19 (A) or day 25 (B,C) | Occasionally, an animal treated with ATP or ADP would die a few hours after injection | as effective | 1.2 ± 0.2 | 0.70 ± 0.18 | 1.0 ± 0.2 | 0.84 ± 0.23 | 0.5 ± 0.1 | 0.38 ± 0.10 | 0.8 ± 0.1 | 0.51 ± 0.18 | 0.9 ± 0.5 | 0.68 ± 0.36 | 5.5-6.2 | without any significant effects on the magnitude of tumor growth inhibition | 3.99 ± 0.81 | 2.53 ± 0.61 | Tumor diameter [5, 18]: 1.3 ± 0.2 cm; Tumor weight [5, 18]: 1.34 ± 0.33 g; Inhibition of tumor growth (% of saline-treated) ([5]; experiment 1, 10 F per group, 0.5 × 10^6 cells, day 15): 31%; Tumor diameter [5, 19]: 1.4 ± 0.2 cm; Tumor weight [5, 19]: 1.30 ± 0.29 g; Inhibition of tumor growth (% of saline-treated) ([5]; experiment 2, 10 M per group, 0.5 × 10^6 cells, day 15): 30%; Plasma ATP levels [6, 15]: 5.14 ± 0.71 µM; Blood ATP levels [6, 15]: 3.47 ± 0.57 mM; Plasma ATP levels [6, 16]: 2.93 ± 0.69 µM; Blood ATP levels [6, 16]: 2.71 ± 0.54 mM; Plasma ATP levels [6, 17]: 3.01 ± 0.76 µM; Blood ATP levels [6, 17]: 4.26 ± 0.79 mM; Arrested tumors/implanted tumors [7]: 4/10 |
